Laboratory results published in PMC5581314, “Targeting the Type II Secretion System: Development, Optimization, and Validation of a High-Throughput Screen for the Identification of Small Molecule Inhibitors” (Frontiers in Cellular and Infection Microbiology, 2017).
Read-outs that look alike come from different tables or passages of the source.

Target: T1, LipA (Acinetobacter baumannii, UniProt A0ABX6CKD6)
T1 construct: gene lip; secreted LipA from plasmid-encoded lipBA, in culture supernatant
Assay: 4-nitrophenyl myristate lipase assay; IC50 in whole culture, direct inhibition by cell-free supernatant counter-screen
Format: cell-based

## CNCCC=C1c2ccccc2CCc2ccccc21 [Aventyl]
read-out: IC50
  IC50: 14.5 µM

## CNCCCN1c2ccccc2CCc2ccccc21 [Desiprimine]
  IC50: 16.5 µM

## CN(CCCN1c2ccccc2CCc2ccccc21)CC(=O)c1ccc(Cl)cc1 [Lofepramine]
read-out: IC50
  IC50: 21 µM

## CNCCC=C1c2ccccc2C=Cc2ccccc21 [Norcyclobenzaprine]
read-out: IC50
  IC50: 16 µM

## CCCCCCCCCCC[C@@H](C[C@@H]1OC(=O)[C@H]1CCCCCC)OC(=O)[C@H](CC(C)C)NC=O [Orlistat]
  IC50: 0.0406 µM

## CNCCCC1c2ccccc2C=Cc2ccccc21 [Vivactil]
read-out: IC50
  IC50: 10 µM
